Results reported in ChEMBL document CHEMBL4376816, “Discovery of the Oral Leukotriene C4 Synthase Inhibitor (1S,2S)-2-({5-[(5-Chloro-2,4-difluorophenyl)(2-fluoro-2-methylpropyl)amino]-3-methoxypyrazin-2-yl}carbonyl)cyclopropanecarboxylic Acid (AZD9898) as a New Treatment for Asthma” (J Med Chem, 2019).
Active and inactive are the calls of the source. The rule behind the calls is not given here.

Tests used:
[1] = Effective half life in cynomolgus monkey at 1 mg/kg, iv or 2 mg/kg, po after 48 hrs; type: ADME, organism-based, Macaca fascicularis; conditions: in vivo, read-out: t1/2eff (converted)
[2] = Oral bioavailability in Beagle dog at 2 mg/kg via gavage after 48 hrs; type: ADME, organism-based, Canis lupus familiaris; conditions: in vivo
[3] = Intrinsic clearance in human hepatocytes at 1 uM assessed as per million cells after 2 to 60 mins by LC-MS/MS analysis; type: ADME, cell-based, Hepatocyte; conditions: read-out: CLH
[4] = Fraction unbound in cynomolgus monkey plasma by equilibrium dialysis based LC-MS analysis; type: ADME, cell-free, Macaca fascicularis
[5] = Volume of distribution at steady state in Han Wistar rat at 0.5 mg/kg, iv or 1 mg/kg, po after 24 hrs; type: ADME, organism-based; conditions: in vivo, read-out: Vdss
[6] = target: T1, Solute carrier organic anion transporter family member 1B1 (Homo sapiens, UniProt Q9Y6L6); test: Inhibition of OATP1B1 (unknown origin) expressed in HEK293 cells measured after 0.5 to 20 mins by scintillation counting analysis; type: ADME, cell-based
T1 sequence (Q9Y6L6 whole entry): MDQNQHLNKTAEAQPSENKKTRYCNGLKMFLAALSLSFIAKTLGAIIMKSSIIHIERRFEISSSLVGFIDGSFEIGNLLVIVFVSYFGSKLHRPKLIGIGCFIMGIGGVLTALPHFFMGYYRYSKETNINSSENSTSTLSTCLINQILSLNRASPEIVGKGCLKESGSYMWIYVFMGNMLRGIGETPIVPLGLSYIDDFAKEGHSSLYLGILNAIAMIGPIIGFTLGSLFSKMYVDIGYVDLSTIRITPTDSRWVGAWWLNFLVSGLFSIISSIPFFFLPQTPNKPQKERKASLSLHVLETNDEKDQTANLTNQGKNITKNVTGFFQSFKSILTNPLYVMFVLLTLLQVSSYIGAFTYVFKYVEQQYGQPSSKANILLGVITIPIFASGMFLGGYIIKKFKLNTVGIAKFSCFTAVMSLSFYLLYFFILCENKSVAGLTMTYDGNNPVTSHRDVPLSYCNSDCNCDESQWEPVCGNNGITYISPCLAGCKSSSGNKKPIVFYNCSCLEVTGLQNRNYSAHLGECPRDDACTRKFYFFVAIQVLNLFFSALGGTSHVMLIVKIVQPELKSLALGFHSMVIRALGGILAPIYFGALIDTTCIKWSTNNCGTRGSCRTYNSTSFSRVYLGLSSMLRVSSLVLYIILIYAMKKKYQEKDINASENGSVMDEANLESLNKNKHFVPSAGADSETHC

[7] = AUC in po dosed rat at NOAEL measured after 7 days; type: ADME, organism-based; conditions: in vivo
[8] = target: T2, Cytochrome P450 1A2 (Homo sapiens, UniProt P05177); test: Inhibition of recombinant human CYP1A2 using coumarin based substrate by fluorescence assay; type: ADME
T2 sequence (P05177 whole entry): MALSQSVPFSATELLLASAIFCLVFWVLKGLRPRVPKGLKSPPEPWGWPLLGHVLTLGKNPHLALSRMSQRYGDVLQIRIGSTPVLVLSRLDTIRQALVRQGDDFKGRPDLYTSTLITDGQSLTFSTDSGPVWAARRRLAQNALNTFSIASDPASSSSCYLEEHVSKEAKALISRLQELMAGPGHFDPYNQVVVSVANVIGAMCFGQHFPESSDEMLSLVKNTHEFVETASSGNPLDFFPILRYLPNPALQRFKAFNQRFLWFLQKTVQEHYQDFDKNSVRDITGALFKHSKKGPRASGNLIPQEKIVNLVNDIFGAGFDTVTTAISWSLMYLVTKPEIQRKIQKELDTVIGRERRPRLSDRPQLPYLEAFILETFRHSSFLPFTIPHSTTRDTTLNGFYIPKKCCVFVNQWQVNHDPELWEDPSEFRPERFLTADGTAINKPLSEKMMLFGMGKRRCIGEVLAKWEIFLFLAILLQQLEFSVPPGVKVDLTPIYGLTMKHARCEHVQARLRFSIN

[9] = target: Cytochrome P450 2C9 (Homo sapiens, UniProt P11712); test: Inhibition of recombinant human CYP2C9 expressed in Escherichia coli using coumarin based substrate by fluorescence assay; type: ADME
[10] = target: Cytochrome P450 3A4 (Homo sapiens, UniProt P08684); test: Inhibition of recombinant human CYP3A4 expressed in Escherichia coli using coumarin based substrate by fluorescence assay; type: ADME
Chain of Cytochrome P450 3A4 (P08684 whole entry): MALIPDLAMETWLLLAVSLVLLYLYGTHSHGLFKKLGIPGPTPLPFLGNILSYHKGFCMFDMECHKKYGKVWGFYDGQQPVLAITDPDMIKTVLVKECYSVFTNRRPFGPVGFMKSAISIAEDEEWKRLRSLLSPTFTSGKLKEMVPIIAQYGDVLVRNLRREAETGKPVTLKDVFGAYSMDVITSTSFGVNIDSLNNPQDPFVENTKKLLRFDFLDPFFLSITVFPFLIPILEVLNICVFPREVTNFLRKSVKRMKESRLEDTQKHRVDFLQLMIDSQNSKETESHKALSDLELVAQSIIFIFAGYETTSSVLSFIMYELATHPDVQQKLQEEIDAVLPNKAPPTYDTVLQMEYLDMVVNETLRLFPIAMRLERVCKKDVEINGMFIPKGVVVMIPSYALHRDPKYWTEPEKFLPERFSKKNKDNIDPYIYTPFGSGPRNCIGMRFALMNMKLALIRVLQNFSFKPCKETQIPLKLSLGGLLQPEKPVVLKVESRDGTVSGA

[11] = tested on: Blood; test: Preservation of LXA4 level in calcium ionophore A23187-stimulated healthy human whole blood preincubated for 30 mins followed by calcium ionophore A23187 stimulation and measured after 60 mins by LC-MS analysis; type: functional, tissue-based
[12] = tested on: Blood; test: Preservation of LXA4 level in calcium ionophore A23187-stimulated asthmatic human whole blood preincubated for 30 mins followed by calcium ionophore A23187 stimulation and measured after 60 mins by LC-MS analysis; type: functional, tissue-based
[13] = tested on: Blood; test: Effect on arachidonic acid pathway in calcium ionophore A23187-stimulated asthmatic human whole blood assessed as increase in lipoxin level preincubated for 30 mins followed by calcium ionophore A23187 stimulation and measured after 60 mins by LC-MS analysis; type: functional, tissue-based
[14] = target: Sodium channel protein type 5 subunit alpha (Homo sapiens, UniProt Q14524); test: Inhibition of human Nav1.5 expressed in CHOK1 cells at < 33 uM at -90 mV holding potential by Ionwork-based analysis; type: cell-based
Chain of Sodium channel protein type 5 subunit alpha (Q14524 whole entry): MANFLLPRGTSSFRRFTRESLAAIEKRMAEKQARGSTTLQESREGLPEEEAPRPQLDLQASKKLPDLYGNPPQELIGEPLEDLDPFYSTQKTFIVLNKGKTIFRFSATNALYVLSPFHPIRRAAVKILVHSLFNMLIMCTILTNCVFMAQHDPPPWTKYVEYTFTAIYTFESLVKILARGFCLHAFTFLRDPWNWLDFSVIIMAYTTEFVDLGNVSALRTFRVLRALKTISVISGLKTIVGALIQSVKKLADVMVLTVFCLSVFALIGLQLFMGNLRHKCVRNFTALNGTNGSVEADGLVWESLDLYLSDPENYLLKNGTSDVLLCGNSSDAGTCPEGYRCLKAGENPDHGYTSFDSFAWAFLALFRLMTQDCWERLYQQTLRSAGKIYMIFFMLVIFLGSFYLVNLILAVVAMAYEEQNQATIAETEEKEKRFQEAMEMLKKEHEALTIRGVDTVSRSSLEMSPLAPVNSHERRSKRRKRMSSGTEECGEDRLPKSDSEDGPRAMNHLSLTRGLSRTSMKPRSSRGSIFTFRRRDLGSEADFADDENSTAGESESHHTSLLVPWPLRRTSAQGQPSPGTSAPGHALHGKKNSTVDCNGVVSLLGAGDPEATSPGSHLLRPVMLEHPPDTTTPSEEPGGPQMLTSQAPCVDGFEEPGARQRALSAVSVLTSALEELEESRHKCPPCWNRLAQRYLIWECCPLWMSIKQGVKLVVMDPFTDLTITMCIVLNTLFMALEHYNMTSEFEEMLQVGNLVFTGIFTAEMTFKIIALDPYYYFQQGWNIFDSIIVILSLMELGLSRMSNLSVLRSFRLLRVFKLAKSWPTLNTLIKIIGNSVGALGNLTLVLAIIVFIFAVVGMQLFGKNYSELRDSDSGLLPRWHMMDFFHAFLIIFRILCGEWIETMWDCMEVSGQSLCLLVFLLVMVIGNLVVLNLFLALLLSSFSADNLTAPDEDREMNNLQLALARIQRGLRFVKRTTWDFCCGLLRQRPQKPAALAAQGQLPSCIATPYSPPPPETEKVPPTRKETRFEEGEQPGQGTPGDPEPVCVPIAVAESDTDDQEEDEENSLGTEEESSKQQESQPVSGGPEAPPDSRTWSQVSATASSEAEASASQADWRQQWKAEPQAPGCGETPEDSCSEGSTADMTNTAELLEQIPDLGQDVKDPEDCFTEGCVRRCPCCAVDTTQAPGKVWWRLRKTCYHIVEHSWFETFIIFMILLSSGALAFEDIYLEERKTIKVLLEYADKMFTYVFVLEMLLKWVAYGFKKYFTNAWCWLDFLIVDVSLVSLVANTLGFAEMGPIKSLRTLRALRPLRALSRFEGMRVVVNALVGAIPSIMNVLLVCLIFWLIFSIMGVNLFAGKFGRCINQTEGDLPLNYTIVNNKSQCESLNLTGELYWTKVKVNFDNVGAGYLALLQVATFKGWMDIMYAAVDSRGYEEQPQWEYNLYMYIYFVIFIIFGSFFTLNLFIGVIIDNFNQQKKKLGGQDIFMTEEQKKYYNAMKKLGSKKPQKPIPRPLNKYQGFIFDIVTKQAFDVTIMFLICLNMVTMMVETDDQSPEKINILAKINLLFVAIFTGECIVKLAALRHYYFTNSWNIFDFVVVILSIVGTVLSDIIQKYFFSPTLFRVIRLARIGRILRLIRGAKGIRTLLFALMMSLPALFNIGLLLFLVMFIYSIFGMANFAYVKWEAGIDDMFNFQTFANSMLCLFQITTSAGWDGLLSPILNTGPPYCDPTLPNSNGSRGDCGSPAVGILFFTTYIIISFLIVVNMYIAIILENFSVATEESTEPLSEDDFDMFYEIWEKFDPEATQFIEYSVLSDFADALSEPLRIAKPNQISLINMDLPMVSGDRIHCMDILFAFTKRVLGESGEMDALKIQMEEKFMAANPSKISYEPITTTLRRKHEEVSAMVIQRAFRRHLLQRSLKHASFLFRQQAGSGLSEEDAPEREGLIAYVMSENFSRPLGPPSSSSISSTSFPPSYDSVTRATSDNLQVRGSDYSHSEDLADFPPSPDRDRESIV

[15] = target: Voltage-dependent L-type calcium channel subunit alpha-1C (Homo sapiens, UniProt Q13936); test: Inhibition of human Cav1.2 expressed in CHOK1 cells at < 33 uM at -65 mV holding potential by Ionwork-based analysis; type: cell-based
Chain of Voltage-dependent L-type calcium channel subunit alpha-1C (Q13936 whole entry): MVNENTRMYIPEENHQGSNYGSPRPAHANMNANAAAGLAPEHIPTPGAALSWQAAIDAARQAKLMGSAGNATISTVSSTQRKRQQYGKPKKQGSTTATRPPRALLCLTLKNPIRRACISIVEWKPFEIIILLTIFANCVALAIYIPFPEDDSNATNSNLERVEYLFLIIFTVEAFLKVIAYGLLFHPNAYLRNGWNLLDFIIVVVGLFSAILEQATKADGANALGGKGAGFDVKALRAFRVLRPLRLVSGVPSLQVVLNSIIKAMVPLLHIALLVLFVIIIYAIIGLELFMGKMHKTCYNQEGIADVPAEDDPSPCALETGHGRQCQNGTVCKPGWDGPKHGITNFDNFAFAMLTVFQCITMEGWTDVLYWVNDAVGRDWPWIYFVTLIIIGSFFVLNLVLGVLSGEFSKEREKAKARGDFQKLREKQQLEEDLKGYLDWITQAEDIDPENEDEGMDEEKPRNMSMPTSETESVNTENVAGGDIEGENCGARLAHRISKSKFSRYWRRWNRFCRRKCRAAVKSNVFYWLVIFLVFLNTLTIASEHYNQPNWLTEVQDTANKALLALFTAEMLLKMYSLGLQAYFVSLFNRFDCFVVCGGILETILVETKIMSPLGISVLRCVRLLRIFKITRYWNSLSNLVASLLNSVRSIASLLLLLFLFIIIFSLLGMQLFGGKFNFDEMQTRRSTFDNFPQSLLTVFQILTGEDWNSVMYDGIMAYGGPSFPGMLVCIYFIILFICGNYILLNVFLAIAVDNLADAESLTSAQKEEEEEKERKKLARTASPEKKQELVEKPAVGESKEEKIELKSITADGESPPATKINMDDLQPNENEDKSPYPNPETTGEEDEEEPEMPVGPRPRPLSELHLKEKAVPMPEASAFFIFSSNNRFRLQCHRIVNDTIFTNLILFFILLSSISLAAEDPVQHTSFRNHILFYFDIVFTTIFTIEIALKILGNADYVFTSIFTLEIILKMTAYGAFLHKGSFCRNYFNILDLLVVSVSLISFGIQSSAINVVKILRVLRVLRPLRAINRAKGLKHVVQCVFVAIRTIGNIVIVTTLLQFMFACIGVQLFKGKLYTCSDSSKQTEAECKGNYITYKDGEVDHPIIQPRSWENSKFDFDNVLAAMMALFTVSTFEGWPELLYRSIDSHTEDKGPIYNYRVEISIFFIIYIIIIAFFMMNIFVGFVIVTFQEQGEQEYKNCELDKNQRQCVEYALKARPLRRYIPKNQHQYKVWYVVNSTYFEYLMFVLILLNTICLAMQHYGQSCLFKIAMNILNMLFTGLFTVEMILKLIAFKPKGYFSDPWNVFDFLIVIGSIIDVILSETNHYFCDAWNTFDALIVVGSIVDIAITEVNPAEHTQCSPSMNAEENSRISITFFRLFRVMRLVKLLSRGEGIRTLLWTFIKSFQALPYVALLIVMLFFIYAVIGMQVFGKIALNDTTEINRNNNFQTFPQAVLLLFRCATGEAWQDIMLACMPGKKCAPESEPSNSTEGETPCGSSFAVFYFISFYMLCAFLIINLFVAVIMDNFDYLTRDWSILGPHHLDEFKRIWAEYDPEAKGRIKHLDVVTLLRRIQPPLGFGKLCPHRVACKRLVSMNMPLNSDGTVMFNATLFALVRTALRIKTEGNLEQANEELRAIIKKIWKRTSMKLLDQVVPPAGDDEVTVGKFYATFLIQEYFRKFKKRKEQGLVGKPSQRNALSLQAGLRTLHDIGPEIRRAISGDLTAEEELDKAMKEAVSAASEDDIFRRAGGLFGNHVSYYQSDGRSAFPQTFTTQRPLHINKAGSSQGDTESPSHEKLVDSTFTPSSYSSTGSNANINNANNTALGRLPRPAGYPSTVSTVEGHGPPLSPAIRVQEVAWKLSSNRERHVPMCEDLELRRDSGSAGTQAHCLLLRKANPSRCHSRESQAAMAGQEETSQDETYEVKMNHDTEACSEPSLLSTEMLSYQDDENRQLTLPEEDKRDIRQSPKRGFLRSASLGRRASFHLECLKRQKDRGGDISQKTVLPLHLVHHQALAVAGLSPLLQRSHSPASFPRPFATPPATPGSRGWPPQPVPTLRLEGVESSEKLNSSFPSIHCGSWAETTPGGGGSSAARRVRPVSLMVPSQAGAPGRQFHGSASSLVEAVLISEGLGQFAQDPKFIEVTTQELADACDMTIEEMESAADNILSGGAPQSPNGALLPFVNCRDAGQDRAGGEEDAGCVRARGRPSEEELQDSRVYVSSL

[16] = target: Potassium voltage-gated channel subfamily E member 1 (Homo sapiens, UniProt P15382); test: Inhibition of human minK expressed in CHOK1 cells at < 33 uM at -80 mV holding potential by Ionwork-based analysis; type: cell-based
[17] = target: T3, A-type potassium channel modulatory protein KCNIP2 (Homo sapiens) (UniProt Q9NS61); test: Inhibition of human KvChIP2 expressed in CHOK1 cells at < 33 uM at -90 mV holding potential by Ionwork-based analysis; type: cell-based
T3 sequence (whole entry): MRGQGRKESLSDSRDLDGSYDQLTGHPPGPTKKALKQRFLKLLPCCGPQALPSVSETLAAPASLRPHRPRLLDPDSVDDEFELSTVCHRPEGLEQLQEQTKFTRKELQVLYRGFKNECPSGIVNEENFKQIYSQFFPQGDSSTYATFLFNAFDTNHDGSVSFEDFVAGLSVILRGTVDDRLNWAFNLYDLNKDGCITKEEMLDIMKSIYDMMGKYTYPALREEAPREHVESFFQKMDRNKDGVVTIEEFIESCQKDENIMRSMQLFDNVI

[18] = Genotoxicity in Salmonella typhimurium by Ames test; type: toxicity; conditions: salmonella enterica subsp. enterica serovar typhimurium
[19] = Apparent permeability across apical to basolateral side in human Caco2 cells; conditions: Caco-2

COc1nc(N(CC(C)(C)F)c2cc(Cl)c(F)cc2F)cnc1C(=O)[C@H]1C[C@@H]1C(=O)O [AZD-9898]
half-life [1]: 12 h
bioavailability [2]: 100%
hepatocyte CLint at 1 µM [3]: < 1.2 µL/min/1e6 cells
fraction unbound [4]: 0.03
Vd [5]: 5.3 L/kg
INH [6]: 3.2 µM
AUC [7]: 4500 µM·h
IC50 [8]: > 30 µM
IC50 [9]: > 30 µM
IC50 [10]: > 30 µM
Activity [11]: Dose-dependent effect
Activity [12]: Dose-dependent effect
Activity [13]: Dose-dependent effect
inhibition (INH) [14]: Not Active
inhibition (INH) [15]: Not Active
inhibition (INH) [16]: Not Active
inhibition [17]: inactive
Activity [18]: Non-Toxic
Papp A→B [19]: 61 ×10⁻⁶ cm/s
